Publication PMC7997574, “Lead Optimization of Benzoxazolone Carboxamides as Orally Bioavailable and CNS Penetrant Acid Ceramidase Inhibitors” (Journal of Medicinal Chemistry, 2020)
Values after ≈ are worked out from the molar mass of the structure shown. Structures can show the parent of a compound that is named as a salt. Where two headings read alike, the source gives them in different places.

Tests used:
[1] = In vitro plasma stability study; type: in vitro ADME; conditions: mouse plasma; read-out: m-plasma t1/2
Experimental: Freshly prepared 10 mM MeCN stock solution of test compound was diluted 50-fold with DMSO/H2O (1:1) and incubated at 37 °C for 2 h with mouse plasma added in 5% DMSO (preheated at 37 °C for 10 min). The final concentration was 2 μM. At each time point (0, 5, 15, 30, 60, and 120 min), 50 μL of incubation mixture was diluted with 200 μL of cold MeCN spiked with 200 nM internal standard followed by centrifugation at 3300 × g for 20 min. The supernatant was further diluted with H2O (1:1) for analysis. The concentration of test compound was quantified by LC/MS/MS on a Waters ACQUITY UPLC/MS TQD system consisting of a TQD MS equipped with an ESI interface. The analyses were run on an ACQUITY UPLC BEH C18 (50 × 2.1 mm ID, particle size 1.7 μm) with a VanGuard BEH C18 precolumn (5 × 2.1 mm ID, particle size 1.7 μm) at 40 °C. For each compound, the appropriate mobile phase was chosen. ESI was applied in positive mode. The response factors, calculated on the basis of the internal standard peak area, were plotted over time. When possible, response vs time profiles were fitted with Prism (GraphPad Software, Inc., USA) to estimate compound t1/2 in plasma. Values are the mean of at least two independent experiments performed in two technical replicates.

[2] = Aqueous kinetic solubility assay; type: physicochemical; conditions: PBS, pH 7.4
Experimental: The aqueous kinetic solubility was determined from a 10 mM MeCN stock solution of test compound in Phosphate-Buffered Saline (PBS) at pH 7.4. The study was performed by incubation of an aliquot of 10 mM MeCN stock solution in PBS (pH 7.4) at a target concentration of 250 μM. The incubation was carried out under shaking at 25 °C for 1 h followed by centrifugation at 21100 × g for 30 min. The supernatant was analyzed by UPLC/MS for the quantification of the dissolved compound (in μM) by UV at a specific wavelength (215 nm). […] The UPLC/MS analyses were performed on a Waters ACQUITY UPLC/MS system consisting of a single quadrupole detector (SQD) Mass Spectrometer (MS) equipped with an Electrospray Ionization (ESI) interface and a Photodiode Array Detector (PDA). The PDA range was 210–400 nm. ESI in positive mode was used in the mass scan range of 100–650 Da. The analyses were run on an ACQUITY UPLC BEH C18 column (50 × 2.1 mm ID, particle size 1.7 μm) with a VanGuard BEH C18 precolumn (5 × 2.1 mm ID, particle size 1.7 μm), using 10 mM NH4OAc in H2O at pH 5 adjusted with AcOH (A) and 10 mM NH4OAc in MeCN/H2O (95:5) at pH 5 (B) as the mobile phase. Values are reported as mean values of ≥2 experiments performed.

[3] = In vitro microsomal stability study; type: in vitro ADME; conditions: mouse liver microsomes
Experimental: Freshly prepared 10 mM MeCN stock solution of test compound was preincubated at 37 °C for 15 min with mouse liver microsomes added in 0.1 M Tris HCl buffer (pH 7.4). The final concentration was 4.6 μM. After preincubation, the cofactors (NADPH, G6P, G6PDH, and MgCl2 predissolved in 0.1 M Tris HCl) were added to the incubation mixture, and the incubation was continued at 37 °C for 1 h. At each time point (0, 5, 15, 30, and 60 min), 30 μL of incubation mixture was diluted with 200 μL of cold MeCN spiked with 200 nM internal standard followed by centrifugation at 3300 × g for 15 min. The supernatant was further diluted with H2O (1:1) for analysis. The concentration of the test compound was quantified by LC/MS/MS on a Waters ACQUITY UPLC/MS TQD system consisting of a TQD MS equipped with an ESI interface. The analyses were run on an ACQUITY UPLC BEH C18 (50 × 2.1 mm ID, particle size 1.7 μm) with a VanGuard BEH C18 precolumn (5 × 2.1 mm ID, particle size 1.7 μm) at 40 °C. For each compound, the appropriate mobile phase was chosen. ESI was applied in positive mode. The percentage of test compound remaining at each time point relative to t = 0 was calculated. t1/2 was determined by a one-phase decay equation using a nonlinear regression of compound concentration vs time. Values are the mean of at least two independent experiments performed in two technical replicates.

AC = target: T1, AC (Homo sapiens, UniProt Q13510); test: Fluorogenic hAC assay on hAC-enriched lysate of HEK293 cells; type: biochemical; design: expressed in transfected cells
T1 sequence (Q13510 22-395): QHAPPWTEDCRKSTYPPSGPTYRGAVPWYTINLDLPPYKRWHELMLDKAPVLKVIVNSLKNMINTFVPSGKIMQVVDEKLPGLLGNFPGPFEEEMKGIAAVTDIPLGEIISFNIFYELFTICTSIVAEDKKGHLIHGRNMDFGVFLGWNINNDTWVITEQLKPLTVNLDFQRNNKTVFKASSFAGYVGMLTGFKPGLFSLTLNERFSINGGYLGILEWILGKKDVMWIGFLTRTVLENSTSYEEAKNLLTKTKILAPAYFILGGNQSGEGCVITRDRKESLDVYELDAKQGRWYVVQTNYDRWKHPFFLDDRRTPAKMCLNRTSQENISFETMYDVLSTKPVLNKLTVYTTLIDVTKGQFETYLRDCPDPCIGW
Experimental: HEK293 cells stably expressing hAC were grown in Dulbecco’s modified Eagle medium (DMEM) containing 10% FBS, 1% glutamine, 1 mM sodium pyruvate, and 500 μg mL^–1 G418. Cells were harvested, and pellets were stored at −80 °C until lysosomal-enriched lysate preparation. Cells were suspended in 20 mM Tris HCl (pH 7.5) with 0.32 M sucrose, sonicated, and centrifuged at 800 × g for 30 min at 4 °C. Supernatants were then centrifuged at 12000 × g for 30 min at 4 °C. Pellets were resuspended in PBS (pH 7.4) and subjected to three freeze–thaw cycles at −80 °C. The suspension was finally centrifuged at 105000 × g for 1 h at 4 °C, and protein concentration was measured in the supernatant with the bicinchoninic acid based protein assay. This hAC-enriched preparation allowed us to further optimize the enzymatic assay and to use small amounts of lysate (2 μg per well) at a 5 μM substrate (Rbm14–12) around its KM (KM = 5.0 μM).
The assay was performed in Optiplate 96-well black plates, with each reaction well containing a mixture of 25 mM NaOAc buffer (pH 4.5) and a fixed amount of protein (2 μg) in a volume of 85 μL. After 10 min of preincubation with test compounds (diluted 20× from DMSO stock solutions at different concentrations), the fluorogenic probe was added (diluted 40× from EtOH stock solution, final concentration 5 μM). After 3 h of incubation at 37 °C, reactions were stopped with 50 μL of MeOH and 100 μL of a 2.5 mg mL^–1 NaIO4 fresh solution in 100 mM glycine/NaOH buffer (pH 10.6). The plates were further incubated for 2 h at 37 °C in the dark, and fluorescence intensities were measured at excitation/emission wavelengths of 355/460 nm. Negative control samples consisted of the same incubation mixture in the absence of protein-enriched extracts. Data were plotted as a function of compound concentrations. IC50 values were calculated by nonlinear regression analysis using GraphPad Prism 5 (GraphPad Software Inc., CA, USA) applying a standard slope curve fitting. The reported IC50 values are the mean of at least three independent experiments performed in three technical replicates.

[4] = hAC expressed in HEK-293 cells, read-out: hAC IC50 (μM)±SD
[5] = supplementary csv, read-out: hAC, IC50

CC(C)CNC(=O)n1c(=O)oc2cc(C3CCCCN3C)ccc21 (racemic) [compound 26, (±)-N-Isobutyl-6-(1-methyl-2-piperidyl)-2-oxo-1,3-benzoxazole-3-carboxamide] showed a half-life at 2 µM [1] of 30 min, a solubility at 1 h [2] of 190 µM (≈ 63 µg/mL) and a half-life at 1 h, 4.6 µM ([3]; pH 7.4, read-out: m-LM t1/2) of 15 min. For the same compound, the IC50 (AC; [4]) was 1.01 ± 0.432 µM and the IC50 (AC; [5]) was 1.19 ± 0.435 µM.
For CC(C)CNC(=O)n1c(=O)oc2cc(C3CCCN(C)C3)ccc21 (racemic) [compound 27, (±)-N-Isobutyl-6-(1-methyl-3-piperidyl)-2-oxo-1,3-benzoxazole-3-carboxamide], the half-life at 2 µM [1] was 50 min, the solubility at 1 h [2] was > 250 µM and the “m-LM [% at 60 min]” value ([3]; % remaining at 60 min) was 70%. For the same compound, the half-life at 4.6 μM ([3]; pH 7.4, read-out: m-LM t1/2) was > 60 min, the IC50 (AC; [4]) was 1.75 ± 0.705 µM and the IC50 (AC; [5]) was 1.62 ± 0.649 µM.
With O=C(NCCOCc1ccccc1)n1c(=O)oc2cc(-c3ccc(F)cc3)ccc21 [2d, N-(2-Benzyloxyethyl)-6-(4-fluorophenyl)-2-oxo-1,3-benzoxazole-3-carboxamide] the IC50 (AC; [5]) was 4.7 ± 6.04 µM.
In the case of CCCCCNC(=O)n1c(=O)oc2cc(-c3ccc(F)cc3)ccc21 [2e, 6-(4-Fluorophenyl)-2-oxo-N-pentyl-1,3-benzoxazole-3-carboxamide], the solubility at 1 h [2] is reported as < 1 µM and the IC50 (AC; read-out: hAC IC50) is reported as 0.06 µM.
Work on CCOCCNC(=O)n1c(=O)oc2cc(-c3ccc(F)cc3)ccc21 [2f, N-(2-Ethoxyethyl)-6-(4-fluorophenyl)-2-oxo-1,3-benzoxazole-3-carboxamide] yielded an IC50 (AC; [5]) of 2.3 µM.
In the case of COCCCNC(=O)n1c(=O)oc2cc(-c3ccc(F)cc3)ccc21 [2g, 6-(4-Fluorophenyl)-N-(3-methoxypropyl)-2-oxo-1,3-benzoxazole-3-carboxamide], the IC50 (AC; [5]) is reported as 2.6 ± 0.176 µM.
For O=C1C(=O)N(C(=O)NCCCCc2ccccc2)c2ccccc21 [8c, 2,3-Dioxo-N-(4-phenylbutyl)indoline-1-carboxamide], the IC50 (AC; [4]) was > 10 µM.
In the case of O=C1Cc2ccccc2N1C(=O)NCCCCc1ccccc1 [8d, 2-Oxo-N-(4-phenylbutyl)indoline-1-carboxamide], the IC50 (AC; [4]) is reported as > 10 µM.
CN1CCc2oc(=O)n(C(=O)NCCCCc3ccccc3)c2C1 [12c, 5-Methyl-2-oxo-N-(4-phenylbutyl)-6,7-dihydro-4H-oxazolo[4,5-c]pyridine-3-carboxamide Hydrochloride] showed an IC50 (AC; [5]) of 0.516 ± 0.165 µM.
For O=C(NCCCCc1ccccc1)n1c2c(oc1=O)CCN(Cc1ccccc1)C2 [12d, 5-Benzyl-2-oxo-N-(4-phenylbutyl)-6,7-dihydro-4H-oxazolo[4,5-c]pyridine-3-carboxamide], the IC50 (AC; [5]) was 0.436 ± 0.073 µM.
Compound CC(=O)N1CCc2oc(=O)n(C(=O)NCCCCc3ccccc3)c2C1 [12e, 5-Acetyl-2-oxo-N-(4-phenylbutyl)-6,7-dihydro-4H-oxazolo[4,5-c]pyridine-3-carboxamide] has an IC50 (AC; [5]) of 0.293 ± 0.107 µM.
For CN1CCC(c2ccc3[nH]c(=O)oc3c2)CC1 [21g, 6-(1-Methyl-4-piperidyl)-3H-1,3-benzoxazol-2-one], the “inhibition of hAC” value (AC; tested at 1 and 10 μM) was “not able to inhibit hAC”.
For O=C(NCCCCc1ccccc1)n1c(=O)oc2cc(C3CCCCC3)ccc21 [22a, 6-Cyclohexyl-2-oxo-N-(4-phenylbutyl)-1,3-benzoxazole-3-carboxamide], the IC50 (AC; [4]) was 0.089 ± 0.054 µM.
O=C(NCCCCc1ccccc1)n1c(=O)oc2cc(C3CCOCC3)ccc21 [22b, 2-Oxo-N-(4-phenylbutyl)-6-tetrahydropyran-4-yl-1,3-benzoxazole-3-carboxamide] gave an IC50 (AC; [4]) of 0.068 ± 0.022 µM.
With CCOCCNC(=O)n1c(=O)oc2cc(C3CCN(C)CC3)ccc21 [22l, N-(2-Ethoxyethyl)-6-(1-methyl-4-piperidyl)-2-oxo-1,3-benzoxazole-3-carboxamide] the IC50 (AC; [4]) was 1.05 ± 0.312 µM.
CCC(C)NC(=O)n1c(=O)oc2cc(C3CCN(C)CC3)ccc21 (stereo not shown) [22n, 6-(1-Methyl-4-piperidyl)-2-oxo-N-sec-butyl-1,3-benzoxazole-3-carboxamide] gave an IC50 (AC; [4]) of 2.1 µM.
With O=C(NCCCCc1ccccc1)n1c(=O)oc2cc(N3CCCCC3)ccc21 [23a, 2-Oxo-N-(4-phenylbutyl)-6-piperidin-1-ium-1-yl-1,3-benzoxazole-3-carboxamide Hydrochloride] the IC50 (AC; [4]) was 0.08 ± 0.017 µM.
Work on O=C(NCCCCc1ccccc1)n1c(=O)oc2cc(N3CCOCC3)ccc21 [23b, 6-Morpholino-2-oxo-N-(4-phenylbutyl)-1,3-benzoxazole-3-carboxamide] yielded an IC50 (AC; [4]) of 0.192 ± 0.087 µM.
O=C(NCCCCc1ccccc1)n1c(=O)oc2cc(N3CCS(=O)(=O)CC3)ccc21 [23c, 6-(1,1-Dioxo-1,4-thiazinan-4-yl)-2-oxo-N-(4-phenylbutyl)-1,3-benzoxazole-3-carboxamide] showed an IC50 (AC; [4]) of 0.16 ± 0.014 µM.
Compound CC(C)N1CCN(c2ccc3c(c2)oc(=O)n3C(=O)NCCCCc2ccccc2)CC1 [23h, 6-(4-Isopropylpiperazin-1-yl)-2-oxo-N-(4-phenylbutyl)-1,3-benzoxazole-3-carboxamide] has an IC50 (AC; [4]) of 0.211 ± 0.065 µM.
CC(C)CN1CCN(c2ccc3c(c2)oc(=O)n3C(=O)NCCCCc2ccccc2)CC1 [23i, 6-(4-Isobutylpiperazin-1-Yl)-2-oxo-N-(4-phenylbutyl)-1,3-benzoxazole-3-carboxamide] gave an IC50 (AC; [4]) of 0.127 ± 0.037 µM.
